ChEMBL document CHEMBL5036336, “Structure-Guided Optimization Provides a Series of TTK Protein Inhibitors with Potent Antitumor Activity” (J Med Chem, 2021)
Converted amounts (≈) assume the structure as drawn. The source made the active and inactive calls. The rule behind the calls is not given here.

Assays:
[1] = molecular target: T1, Mitogen-activated protein kinase 8 (Homo sapiens, UniProt P45983); assay: Inhibition of JNK1 (unknown origin) at 3 uM by Z-lyte assay relative to control
[2] = molecular target: Muscarinic acetylcholine receptor M1 (Homo sapiens) (UniProt P11229); assay: Inhibition of muscarinic M1 receptor (unknown origin) at 10 uM relative to control
[3] = molecular target: Testis-specific serine/threonine-protein kinase 2 (Homo sapiens) (UniProt Q96PF2); assay: Inhibition of TSSK2 (unknown origin) at 3 uM by Z-lyte assay relative to control
[4] = molecular target: Cytochrome P450 3A4 (Homo sapiens, UniProt P08684); assay: Inhibition of CYP3A4 in human liver microsomes using […] as substrate incubated for 5 mins in presence of NADPH by LC-MS/MS analysis; type: ADME
[5] = molecular target: Muscarinic acetylcholine receptor M3 (Homo sapiens) (UniProt P20309); assay: Inhibition of muscarinic M3 receptor (unknown origin) at 10 uM relative to control
[6] = molecular target: Mitogen-activated protein kinase 9 (Homo sapiens, UniProt P45984); assay: Inhibition of JNK2 (unknown origin) by Z-lyte assay
[7] = species on record: Homo sapiens; assay: Selectivity ratio of IC50 for inhibition of N1-SRC (unknown origin) to IC50 for inhibition of TTK (unknown origin)
[8] = molecular target: T2, Dual specificity protein kinase TTK (Homo sapiens, UniProt P33981); assay: Inhibition of TTK autophosphorylation at T686 residue in human CAL-51 cells measured after 1 hr by Western blot analysis; type: cell-based
T2 sequence (P33981 whole entry): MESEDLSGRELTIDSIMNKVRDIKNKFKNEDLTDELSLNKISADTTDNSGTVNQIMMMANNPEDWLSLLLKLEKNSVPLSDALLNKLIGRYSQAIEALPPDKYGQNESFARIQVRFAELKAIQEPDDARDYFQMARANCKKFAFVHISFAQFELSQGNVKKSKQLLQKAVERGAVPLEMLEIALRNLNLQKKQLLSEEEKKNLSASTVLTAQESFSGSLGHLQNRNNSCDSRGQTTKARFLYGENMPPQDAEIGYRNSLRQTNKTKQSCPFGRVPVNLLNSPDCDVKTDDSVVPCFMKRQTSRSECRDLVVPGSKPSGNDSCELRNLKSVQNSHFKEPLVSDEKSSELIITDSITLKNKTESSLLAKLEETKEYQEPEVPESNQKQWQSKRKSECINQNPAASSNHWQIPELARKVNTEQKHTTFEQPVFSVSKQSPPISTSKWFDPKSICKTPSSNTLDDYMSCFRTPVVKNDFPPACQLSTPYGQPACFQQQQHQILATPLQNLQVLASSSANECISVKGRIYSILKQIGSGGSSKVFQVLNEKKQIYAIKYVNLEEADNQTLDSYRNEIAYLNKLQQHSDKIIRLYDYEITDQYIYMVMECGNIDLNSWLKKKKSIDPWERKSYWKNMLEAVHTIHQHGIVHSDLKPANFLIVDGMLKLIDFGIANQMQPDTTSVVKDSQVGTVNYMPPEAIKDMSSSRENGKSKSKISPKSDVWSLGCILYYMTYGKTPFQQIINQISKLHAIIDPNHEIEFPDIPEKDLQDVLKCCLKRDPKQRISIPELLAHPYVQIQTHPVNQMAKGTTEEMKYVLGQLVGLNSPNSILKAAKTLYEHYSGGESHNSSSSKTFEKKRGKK

[9] = molecular target: Testis-specific serine/threonine-protein kinase 2 (Homo sapiens, UniProt Q96PF2); assay: Inhibition of TSSK2 (unknown origin) by Z-lyte assay
[10] = species on record: Homo sapiens; assay: Selectivity ratio of IC50 for inhibition of JNK2 (unknown origin) to IC50 for inhibition of TTK (unknown origin)
[11] = molecular target: T3, Serine/threonine-protein kinase Chk2 (Homo sapiens, UniProt O96017); assay: Inhibition of CHK2 (unknown origin) by Z-lyte assay
[12] = species on record: Homo sapiens; assay: Selectivity ratio of IC50 for inhibition of JNK1 (unknown origin) to IC50 for inhibition of TTK (unknown origin)
[13] = Mean residence time in rat at 2 mg/kg, iv; type: ADME, organism-based; details: in vivo
[14] = molecular target: T3, Serine/threonine-protein kinase Chk2; assay: Inhibition of CHK2 (unknown origin) at 3 uM by Z-lyte assay relative to control
[15] = molecular target: Substance-K receptor (Homo sapiens) (UniProt P21452); assay: Inhibition of Neurokinin NK2 receptor (unknown origin) at 10 uM relative to control
[16] = molecular target: T1, Mitogen-activated protein kinase 8; assay: Inhibition of JNK1 (unknown origin) by Z-lyte assay
[17] = molecular target: Testis-specific serine/threonine-protein kinase 1 (Homo sapiens, UniProt Q9BXA7); assay: Inhibition of TSSK1 (unknown origin) by Z-lyte assay
[18] = molecular target: Voltage-gated inwardly rectifying potassium channel KCNH2 (Homo sapiens, UniProt Q12809); assay: Inhibition of hERG
[19] = species on record: Homo sapiens; assay: Selectivity ratio of IC50 for inhibition of LRRK2 (unknown origin) to IC50 for inhibition of TTK (unknown origin)
[20] = Toxicity in CB17-SCID mouse xenografted with human CAL-51 cells assessed as body weight loss at 30 to 50 mg/kg, iv administered once per week for 16 days; type: organism-based; details: in vivo, 384 h, dose 30-50 mg/kg, time 16 day
[21] = AUC in rat at 2 mg/kg, iv; type: ADME, organism-based; design: dose 2 mg/kg; details: in vivo
[22] = species on record: Homo sapiens; assay: Selectivity ratio of IC50 for inhibition of TSSK1 (unknown origin) to IC50 for inhibition of TTK (unknown origin)
[23] = system: CAL-51; assay: Antitumor activity against human TNBC PDX-CAL-51 cells xenografted in CB17-SCID mouse assessed as tumor growth inhibition at 25 to 80 mg/kg, iv administered once per week for 3 weeks; type: functional, organism-based; details: dose 25-80 mg/kg
[24] = molecular target: MAP kinase-activated protein kinase 3 (Homo sapiens, UniProt Q16644); assay: Inhibition of MAPKAPK3 (unknown origin) by Z-lyte assay
[25] = Plasma protein binding in mouse; type: ADME, cell-free; details: read-out: PPB
[26] = molecular target: Substance-P receptor (Homo sapiens) (UniProt P25103); assay: Inhibition of Neurokinin NK1 receptor (unknown origin) at 10 uM relative to control
[27] = system: CAL-51; assay: Antiproliferative activity against human CAL-51 cells assessed as inhibition of cell proliferation measured after 3 days by Cell Titer-Glo luminescence based assay; type: functional; details: CAL-51, 72 h
[28] = Mean residence time in mouse at 2 mg/kg, iv; type: ADME, organism-based; details: in vivo
[29] = Toxicity in CB17-SCID mouse xenografted with human TNBC PDX-CAL-51 cells assessed as body weight loss at 80 mg/kg, iv administered once per week for 3 weeks; type: organism-based; details: in vivo, 504 h
[30] = species on record: Homo sapiens; assay: Selectivity index, ratio of IC50 for inhibition of CHK2 (unknown origin) to IC50 for inhibition of TTK (unknown origin)
[31] = species on record: Homo sapiens; assay: Selectivity ratio of IC50 for inhibition of MAPKAPK3 (unknown origin) to IC50 for inhibition of TTK (unknown origin)
[32] = Kinetic solubility of compound in PBS at pH 7.4 at 200 uM incubated for 24 hrs by UPLC/MS analysis; type: physicochemical; details: read-out: Kinetic_solubility

T1 sequence (P45983 whole entry): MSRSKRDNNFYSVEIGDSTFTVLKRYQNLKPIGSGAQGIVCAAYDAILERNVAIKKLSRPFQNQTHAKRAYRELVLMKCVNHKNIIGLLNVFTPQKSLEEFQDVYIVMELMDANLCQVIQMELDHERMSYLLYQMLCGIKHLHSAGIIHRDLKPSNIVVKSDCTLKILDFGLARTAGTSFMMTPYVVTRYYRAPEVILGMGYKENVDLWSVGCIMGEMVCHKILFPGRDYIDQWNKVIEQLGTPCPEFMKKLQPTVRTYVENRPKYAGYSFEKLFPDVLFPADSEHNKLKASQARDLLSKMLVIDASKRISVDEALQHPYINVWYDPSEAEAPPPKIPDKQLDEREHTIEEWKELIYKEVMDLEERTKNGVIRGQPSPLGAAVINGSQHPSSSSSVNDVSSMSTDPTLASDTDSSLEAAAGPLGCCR
T3 sequence (O96017 whole entry): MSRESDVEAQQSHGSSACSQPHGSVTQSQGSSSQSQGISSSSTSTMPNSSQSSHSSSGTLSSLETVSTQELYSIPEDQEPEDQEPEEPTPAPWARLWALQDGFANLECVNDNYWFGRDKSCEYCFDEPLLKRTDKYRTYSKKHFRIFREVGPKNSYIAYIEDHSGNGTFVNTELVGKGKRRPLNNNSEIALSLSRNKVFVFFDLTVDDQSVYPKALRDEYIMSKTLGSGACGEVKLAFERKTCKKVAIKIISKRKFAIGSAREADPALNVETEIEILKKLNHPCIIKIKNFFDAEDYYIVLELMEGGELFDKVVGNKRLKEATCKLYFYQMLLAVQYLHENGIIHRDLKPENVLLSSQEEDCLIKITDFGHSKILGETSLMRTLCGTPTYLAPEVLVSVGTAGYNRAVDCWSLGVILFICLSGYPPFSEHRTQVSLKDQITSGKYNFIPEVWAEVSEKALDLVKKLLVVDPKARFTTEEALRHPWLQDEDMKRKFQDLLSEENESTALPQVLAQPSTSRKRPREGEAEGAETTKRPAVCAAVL
MAP kinase-activated protein kinase 3, sequence (Q16644 whole entry): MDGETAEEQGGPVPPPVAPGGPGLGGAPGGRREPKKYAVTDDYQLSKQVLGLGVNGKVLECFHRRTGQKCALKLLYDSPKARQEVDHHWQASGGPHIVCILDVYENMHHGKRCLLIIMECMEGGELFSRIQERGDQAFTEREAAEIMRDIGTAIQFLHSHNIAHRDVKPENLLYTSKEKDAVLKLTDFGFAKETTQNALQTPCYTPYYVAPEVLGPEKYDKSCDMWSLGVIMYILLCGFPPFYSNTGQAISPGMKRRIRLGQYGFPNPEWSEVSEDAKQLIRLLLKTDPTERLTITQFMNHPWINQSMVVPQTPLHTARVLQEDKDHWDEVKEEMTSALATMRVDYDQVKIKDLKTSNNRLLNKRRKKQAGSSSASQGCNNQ
Testis-specific serine/threonine-protein kinase 2 (Homo sapiens), sequence (Q96PF2 whole entry): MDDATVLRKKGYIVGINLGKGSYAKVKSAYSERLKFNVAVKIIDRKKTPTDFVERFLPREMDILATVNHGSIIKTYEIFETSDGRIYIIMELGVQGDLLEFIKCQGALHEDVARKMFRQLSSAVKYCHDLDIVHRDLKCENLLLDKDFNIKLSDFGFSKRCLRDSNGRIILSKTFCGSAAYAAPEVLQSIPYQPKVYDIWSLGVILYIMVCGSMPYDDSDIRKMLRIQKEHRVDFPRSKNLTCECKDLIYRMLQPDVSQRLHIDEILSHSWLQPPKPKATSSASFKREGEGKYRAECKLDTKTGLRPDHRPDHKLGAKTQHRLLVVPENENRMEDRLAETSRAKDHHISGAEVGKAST
Testis-specific serine/threonine-protein kinase 2, sequence (Q96PF2 whole entry): as above
Mitogen-activated protein kinase 9, sequence (P45984 whole entry): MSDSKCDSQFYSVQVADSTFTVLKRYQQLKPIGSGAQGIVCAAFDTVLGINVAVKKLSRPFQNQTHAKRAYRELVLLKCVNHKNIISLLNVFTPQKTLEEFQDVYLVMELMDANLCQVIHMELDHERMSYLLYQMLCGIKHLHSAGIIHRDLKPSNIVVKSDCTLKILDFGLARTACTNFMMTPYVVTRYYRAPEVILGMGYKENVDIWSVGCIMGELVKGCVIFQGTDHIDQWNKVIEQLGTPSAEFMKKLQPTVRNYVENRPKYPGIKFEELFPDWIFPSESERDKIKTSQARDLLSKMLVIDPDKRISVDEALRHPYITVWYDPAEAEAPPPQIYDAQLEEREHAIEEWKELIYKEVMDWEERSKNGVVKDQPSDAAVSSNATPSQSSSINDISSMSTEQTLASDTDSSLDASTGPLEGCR
Muscarinic acetylcholine receptor M1 (Homo sapiens), sequence (P11229 whole entry): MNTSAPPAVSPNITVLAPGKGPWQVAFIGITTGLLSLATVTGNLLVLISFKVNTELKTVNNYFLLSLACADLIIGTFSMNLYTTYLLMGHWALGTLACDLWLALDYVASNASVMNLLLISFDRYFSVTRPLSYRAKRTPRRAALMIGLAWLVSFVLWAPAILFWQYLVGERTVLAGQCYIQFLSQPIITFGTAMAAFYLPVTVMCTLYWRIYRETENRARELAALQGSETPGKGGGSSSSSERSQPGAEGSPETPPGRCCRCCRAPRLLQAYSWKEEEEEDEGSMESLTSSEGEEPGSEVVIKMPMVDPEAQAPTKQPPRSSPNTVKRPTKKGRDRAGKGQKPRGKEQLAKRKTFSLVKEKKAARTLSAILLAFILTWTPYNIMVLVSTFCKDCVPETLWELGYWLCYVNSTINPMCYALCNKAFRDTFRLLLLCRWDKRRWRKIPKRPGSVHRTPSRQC
Voltage-gated inwardly rectifying potassium channel KCNH2, sequence (Q12809 whole entry): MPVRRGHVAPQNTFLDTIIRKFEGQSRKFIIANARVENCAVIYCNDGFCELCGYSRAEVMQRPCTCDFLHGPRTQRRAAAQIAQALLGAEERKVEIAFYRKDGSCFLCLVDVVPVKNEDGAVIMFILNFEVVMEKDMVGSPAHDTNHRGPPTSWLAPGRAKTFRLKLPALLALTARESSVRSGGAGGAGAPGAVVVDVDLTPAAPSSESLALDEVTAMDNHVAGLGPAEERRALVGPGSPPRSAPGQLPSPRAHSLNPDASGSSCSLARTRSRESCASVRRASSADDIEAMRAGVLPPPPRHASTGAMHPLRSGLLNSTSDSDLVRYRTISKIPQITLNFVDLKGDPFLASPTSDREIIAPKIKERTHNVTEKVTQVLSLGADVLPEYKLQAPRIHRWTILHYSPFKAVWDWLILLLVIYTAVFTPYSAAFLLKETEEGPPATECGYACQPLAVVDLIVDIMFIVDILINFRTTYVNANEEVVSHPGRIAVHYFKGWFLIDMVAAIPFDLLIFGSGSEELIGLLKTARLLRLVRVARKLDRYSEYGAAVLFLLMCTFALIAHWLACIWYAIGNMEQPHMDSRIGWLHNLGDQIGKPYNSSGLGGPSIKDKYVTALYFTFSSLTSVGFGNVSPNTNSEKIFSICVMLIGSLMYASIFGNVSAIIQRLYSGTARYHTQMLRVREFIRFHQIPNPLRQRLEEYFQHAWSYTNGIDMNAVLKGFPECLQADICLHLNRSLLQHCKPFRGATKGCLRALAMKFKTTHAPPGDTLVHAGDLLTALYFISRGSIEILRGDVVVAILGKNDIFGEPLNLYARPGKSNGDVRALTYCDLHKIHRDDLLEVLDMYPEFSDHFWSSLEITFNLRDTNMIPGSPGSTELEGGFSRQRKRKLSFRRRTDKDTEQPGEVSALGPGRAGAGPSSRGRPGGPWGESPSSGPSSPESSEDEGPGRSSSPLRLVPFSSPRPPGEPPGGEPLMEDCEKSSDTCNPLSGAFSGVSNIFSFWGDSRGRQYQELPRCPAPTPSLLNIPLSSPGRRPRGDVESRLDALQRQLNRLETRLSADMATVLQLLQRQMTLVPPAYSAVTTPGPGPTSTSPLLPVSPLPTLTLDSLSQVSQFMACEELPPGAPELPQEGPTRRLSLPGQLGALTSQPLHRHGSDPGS
Substance-K receptor (Homo sapiens), sequence (P21452 whole entry): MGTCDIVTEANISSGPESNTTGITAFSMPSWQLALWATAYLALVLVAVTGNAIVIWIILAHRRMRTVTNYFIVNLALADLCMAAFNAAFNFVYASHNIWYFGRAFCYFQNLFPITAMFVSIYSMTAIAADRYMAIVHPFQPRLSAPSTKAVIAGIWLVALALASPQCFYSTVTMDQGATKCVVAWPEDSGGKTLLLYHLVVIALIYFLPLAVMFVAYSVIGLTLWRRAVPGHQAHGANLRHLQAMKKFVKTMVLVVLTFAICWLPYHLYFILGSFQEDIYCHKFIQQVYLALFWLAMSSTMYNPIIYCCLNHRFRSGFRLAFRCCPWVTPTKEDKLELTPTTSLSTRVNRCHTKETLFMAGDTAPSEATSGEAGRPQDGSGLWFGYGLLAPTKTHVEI
Testis-specific serine/threonine-protein kinase 1, sequence (Q9BXA7 whole entry): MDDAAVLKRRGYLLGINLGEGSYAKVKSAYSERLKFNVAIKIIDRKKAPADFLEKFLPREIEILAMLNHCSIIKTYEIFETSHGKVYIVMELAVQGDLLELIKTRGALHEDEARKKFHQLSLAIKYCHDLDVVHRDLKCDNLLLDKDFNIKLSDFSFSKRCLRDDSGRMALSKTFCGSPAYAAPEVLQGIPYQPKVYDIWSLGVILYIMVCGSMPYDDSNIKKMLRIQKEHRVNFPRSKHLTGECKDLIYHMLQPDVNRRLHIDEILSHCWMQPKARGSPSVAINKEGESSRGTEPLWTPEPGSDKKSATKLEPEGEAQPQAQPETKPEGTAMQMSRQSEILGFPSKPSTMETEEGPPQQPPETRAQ

inhibition [1]: > 80%
inhibition [2]: 80%
inhibition [3]: > 80%
IC50 [4]: > 5000 nM
inhibition [5]: 80%
IC50 [6]: 602 nM
Ratio IC50 [7]: 433
IC50 [8]: 74 nM
IC50 [9]: 944 nM
Ratio IC50 [10]: 201
IC50 [11]: 545 nM
Ratio IC50 [12]: 64
MRT [13]: 4.3 h
inhibition [14]: > 80%
inhibition [15]: 80%
IC50 [16]: 192 nM
IC50 [17]: 35 nM
Ratio IC50 [19]: 114
AUC [21]: 18.2 µM·h
Ratio IC50 [22]: 11.7
IC50 [24]: 1480 nM
fraction unbound [25]: < 0.01
inhibition [26]: 80%
MRT [28]: 0.98 h
Ratio IC50 [30]: 182
Ratio IC50 [31]: 493
solubility kinetic at 24 h, 200 µM [32]: 180 µM (≈ 131 µg/mL)
Compound: CCc1cccc(CC)c1N1CCn2cc(-c3nc(Nc4ccc(N5CCC(C(=O)N6CC7(CN(C)C7)C6)CC5)cc4OC)nc4[nH]ccc34)cc2C1=O
IC50 [18]: > 30000 nM
Activity [20]: Non-Toxic
Activity [23]: Active
IC50 [27]: 16 nM
Activity [29]: Non-Toxic
